Test system: 596521-263-R-J1-PDC complex spheroids, viability % of control
Experiment: Anticancer human tumor 596521-263-R-J1-PDC patient-derived soft tissue sarcoma cell line growth inhibition [GQUAD]
Conditions: for IC50: curve of first compound; for viability, T/C: stronger effect = lower value
Procedure, shortened: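 Tumor cells were grown as complex spheroids with HUVEC endothelial cells and mesenchymal stem cells as stroma. G-quadruplex stabilizers were combined with targeted agents over half-log dilutions from near the clinical Cmax, or from 10 microM.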

[1] = second compound 0.0316 µM, first compound 0.0316 µM
[2] = second compound 0.0316 µM, first compound 0.1 µM
[3] = second compound 0.0316 µM, first compound 0.316 µM
[4] = second compound 0.0316 µM, first compound 1 µM
[5] = second compound 0.0316 µM, first compound 3.16 µM
[6] = second compound 0.0316 µM, first compound 10 µM
[7] = second compound 0.1 µM, first compound 0.0316 µM
[8] = second compound 0.1 µM, first compound 0.1 µM
[9] = second compound 0.1 µM, first compound 0.316 µM
[10] = second compound 0.1 µM, first compound 1 µM
[11] = second compound 0.1 µM, first compound 3.16 µM
[12] = second compound 0.1 µM, first compound 10 µM
[13] = second compound 0.316 µM, first compound 0.0316 µM
[14] = second compound 0.316 µM, first compound 0.1 µM
[15] = second compound 0.316 µM, first compound 0.316 µM
[16] = second compound 0.316 µM, first compound 1 µM
[17] = second compound 0.316 µM, first compound 3.16 µM
[18] = second compound 0.316 µM, first compound 10 µM
[19] = second compound 1 µM, first compound 0.0316 µM
[20] = second compound 1 µM, first compound 0.1 µM
[21] = second compound 1 µM, first compound 0.316 µM
[22] = second compound 1 µM, first compound 1 µM
[23] = second compound 1 µM, first compound 3.16 µM
[24] = second compound 1 µM, first compound 10 µM
[25] = second compound 3.16 µM, first compound 0.0316 µM
[26] = second compound 3.16 µM, first compound 0.1 µM
[27] = second compound 3.16 µM, first compound 0.316 µM
[28] = second compound 3.16 µM, first compound 1 µM
[29] = second compound 3.16 µM, first compound 3.16 µM
[30] = second compound 3.16 µM, first compound 10 µM
[31] = second compound 10 µM, first compound 0.0316 µM
[32] = second compound 10 µM, first compound 0.1 µM
[33] = second compound 10 µM, first compound 0.316 µM
[34] = second compound 10 µM, first compound 1 µM
[35] = second compound 10 µM, first compound 3.16 µM
[36] = second compound 10 µM, first compound 10 µM
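Also: spheroids exposed to drugs for 7 days before viability reading.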
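For viability, T/C in this document: 100% = DMSO vehicle control viability.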

SMILES: CC1COCCN1c1cc(-c2ccnn2C)c2ccnc(-c3ccn[nH]3)c2n1 (stereo not drawn) + Cc1cnc(CNC(=O)c2c(=O)c3ccc(N4CCCN(C)CC4)nc3n3c2sc2ccccc23)cn1
- IC50 (second compound 0.0316 µM): 333 nM
- IC50 (second compound 0.1 µM): 367 nM
- IC50 (second compound 0.316 µM): 191 nM
- IC50 (second compound 1 µM): 62.4 nM
- IC50 (second compound 3.16 µM): 90.9 nM
- IC50 (second compound 10 µM): < 31.6 nM
- viability, T/C [1]: 55.9%
- viability, T/C [2]: 55.6%
- viability, T/C [3]: 48.3%
- viability, T/C [4]: 42.5%
- viability, T/C [5]: 27.4%
- viability, T/C [6]: 23.2%
- viability, T/C [7]: 53.1%
- viability, T/C [8]: 65.6%
- viability, T/C [9]: 47%
- viability, T/C [10]: 41.8%
- viability, T/C [11]: 29.7%
- viability, T/C [12]: 28.1%
- viability, T/C [13]: 57.4%
- viability, T/C [14]: 51.3%
- viability, T/C [15]: 49%
- viability, T/C [16]: 41.2%
- viability, T/C [17]: 33%
- viability, T/C [18]: 25.1%
- viability, T/C [19]: 52.2%
- viability, T/C [20]: 47.8%
- viability, T/C [21]: 42.9%
- viability, T/C [22]: 34%
- viability, T/C [23]: 26.8%
- viability, T/C [24]: 26.6%
- viability, T/C [25]: 49.8%
- viability, T/C [26]: 52.3%
- viability, T/C [27]: 45.3%
- viability, T/C [28]: 38%
- viability, T/C [29]: 29.4%
- viability, T/C [30]: 21.2%
- viability, T/C [31]: 39.7%
- viability, T/C [32]: 35%
- viability, T/C [33]: 33.3%
- viability, T/C [34]: 30.4%
- viability, T/C [35]: 25%
- viability, T/C [36]: 14.1%

SMILES: CC1COCCN1c1cc(C2(O)CC3CCC(C2)O3)c2cnn(-c3ccn[nH]3)c2n1 (stereo not drawn) + Cc1cnc(CNC(=O)c2c(=O)c3ccc(N4CCCN(C)CC4)nc3n3c2sc2ccccc23)cn1
- IC50 (second compound 0.0316 µM): 211 nM
- IC50 (second compound 0.1 µM): 115 nM
- IC50 (second compound 0.316 µM): 158 nM
- IC50 (second compound 1 µM): 63.7 nM
- IC50 (second compound 3.16 µM): < 31.6 nM
- IC50 (second compound 10 µM): < 31.6 nM
- viability, T/C [1]: 65.1%
- viability, T/C [2]: 60.9%
- viability, T/C [3]: 42.7%
- viability, T/C [4]: 34.6%
- viability, T/C [5]: 25.5%
- viability, T/C [6]: 13.8%
- viability, T/C [7]: 61%
- viability, T/C [8]: 49.9%
- viability, T/C [9]: 42.3%
- viability, T/C [10]: 33%
- viability, T/C [11]: 24.9%
- viability, T/C [12]: 15.2%
- viability, T/C [13]: 56.9%
- viability, T/C [14]: 54%
- viability, T/C [15]: 47.1%
- viability, T/C [16]: 29.7%
- viability, T/C [17]: 26.5%
- viability, T/C [18]: 13.6%
- viability, T/C [19]: 56.2%
- viability, T/C [20]: 44.2%
- viability, T/C [21]: 38.9%
- viability, T/C [22]: 31.4%
- viability, T/C [23]: 23.9%
- viability, T/C [24]: 13.8%
- viability, T/C [25]: 49.2%
- viability, T/C [26]: 40.2%
- viability, T/C [27]: 41.5%
- viability, T/C [28]: 24.8%
- viability, T/C [29]: 27.5%
- viability, T/C [30]: 14.4%
- viability, T/C [31]: 37.7%
- viability, T/C [32]: 32.6%
- viability, T/C [33]: 33.6%
- viability, T/C [34]: 27.9%
- viability, T/C [35]: 18.2%
- viability, T/C [36]: 4.21%

SMILES: CC1COCCN1c1cc(C2(S(C)(=N)=O)CC2)nc(-c2ccnc3[nH]ccc23)n1 (stereo not drawn) + Cc1cnc(CNC(=O)c2c(=O)c3ccc(N4CCCN(C)CC4)nc3n3c2sc2ccccc23)cn1
- IC50 (second compound 0.0316 µM): 8980 nM
- IC50 (second compound 0.1 µM): 6390 nM
- IC50 (second compound 0.316 µM): > 10000 nM
- IC50 (second compound 1 µM): 6210 nM
- IC50 (second compound 3.16 µM): 103 nM
- IC50 (second compound 10 µM): < 31.6 nM
- viability, T/C [1]: 91.2%
- viability, T/C [2]: 101%
- viability, T/C [3]: 86.4%
- viability, T/C [4]: 87.3%
- viability, T/C [5]: 67.1%
- viability, T/C [6]: 48.3%
- viability, T/C [7]: 84%
- viability, T/C [8]: 93.5%
- viability, T/C [9]: 76.1%
- viability, T/C [10]: 72.5%
- viability, T/C [11]: 59.4%
- viability, T/C [12]: 44.2%
- viability, T/C [13]: 83%
- viability, T/C [14]: 75.5%
- viability, T/C [15]: 66.7%
- viability, T/C [16]: 72.1%
- viability, T/C [17]: 55.6%
- viability, T/C [18]: 51.8%
- viability, T/C [19]: 58%
- viability, T/C [20]: 64.6%
- viability, T/C [21]: 66.7%
- viability, T/C [22]: 56.8%
- viability, T/C [23]: 53%
- viability, T/C [24]: 47.4%
- viability, T/C [25]: 57%
- viability, T/C [26]: 50.5%
- viability, T/C [27]: 48.1%
- viability, T/C [28]: 45.1%
- viability, T/C [29]: 51.9%
- viability, T/C [30]: 47%
- viability, T/C [31]: 46.6%
- viability, T/C [32]: 41.9%
- viability, T/C [33]: 49.3%
- viability, T/C [34]: 39.4%
- viability, T/C [35]: 40.3%
- viability, T/C [36]: 37.6%

SMILES: COc1ccc([C@@H](O)c2cc(-c3ncnc4cc(N5CCOCC5)ccc34)c(F)cc2Cl)nn1 + Cc1cnc(CNC(=O)c2c(=O)c3ccc(N4CCCN(C)CC4)nc3n3c2sc2ccccc23)cn1
- IC50 (second compound 0.0316 µM): 8520 nM
- IC50 (second compound 0.1 µM): 1510 nM
- IC50 (second compound 0.316 µM): 1690 nM
- IC50 (second compound 1 µM): 635 nM
- IC50 (second compound 3.16 µM): 294 nM
- IC50 (second compound 10 µM): < 31.6 nM
- viability, T/C [1]: 99.7%
- viability, T/C [2]: 80.7%
- viability, T/C [3]: 79.4%
- viability, T/C [4]: 77.2%
- viability, T/C [5]: 49.2%
- viability, T/C [6]: 51.3%
- viability, T/C [7]: 92.3%
- viability, T/C [8]: 88.4%
- viability, T/C [9]: 67.5%
- viability, T/C [10]: 50.5%
- viability, T/C [11]: 54.6%
- viability, T/C [12]: 38.7%
- viability, T/C [13]: 84%
- viability, T/C [14]: 77.6%
- viability, T/C [15]: 63.6%
- viability, T/C [16]: 57.1%
- viability, T/C [17]: 42.9%
- viability, T/C [18]: 37.4%
- viability, T/C [19]: 64.5%
- viability, T/C [20]: 58.2%
- viability, T/C [21]: 58.9%
- viability, T/C [22]: 42.5%
- viability, T/C [23]: 43%
- viability, T/C [24]: 37.6%
- viability, T/C [25]: 55.7%
- viability, T/C [26]: 59.6%
- viability, T/C [27]: 45.2%
- viability, T/C [28]: 45.9%
- viability, T/C [29]: 40.3%
- viability, T/C [30]: 35.4%
- viability, T/C [31]: 45.4%
- viability, T/C [32]: 27.4%
- viability, T/C [33]: 42%
- viability, T/C [34]: 38.3%
- viability, T/C [35]: 36.3%
- viability, T/C [36]: 11%

From PubChem BioAssay AID2060500 (Molecular Pharmacology Branch, DTP, NCI, 2025)
